Laboratory results: patent US7759087B1, “Method of indefinite culture of hepatitis C virus” (priority 2005, dated 2010)

Columns and labels:
[1] = tested on: HCV replicon (NS5A-GFP) in GS4 cells; assay: GFP-based flow cytometry assay for HCV replication (NS5A-GFP expression in GS4 replicon cells); type: cell-based, hepatitis C virus; settings: for mean intensity of the GFP and percentage of GFP-positive cells: 100 units/ml IFN, 1 μM 2CMA, 2 μg/ml Cs A
Experimental: (§1) Flow cytometry and cell cycle analysis. Cells were routinely fixed in 2% paraformaldehyde before flow cytometry analysis, which was performed with a FACSCanto flow cytometer (BD Biosciences). Live cell sorting was performed under sterile conditions with a FACSAria flow cytometer (BD Biosciences). The approximately 5% of cells (2×10^7 cells total) with the strongest GFP signal were sorted back for expansion at each round of live-cell sorting. For cell-cycle analysis, 1×10^6 cells were stained with 50 μg/ml propidium iodide in the presence of 200 μg/ml RNase A and 0.1% Triton X-100 for 30 minutes before being subjected to FACS analysis.
A novel GFP-based flow cytometry assay for HCV replication. Recently, a modified HCV replicon with the eGFP gene inserted into the coding region of NS5A has been generated for study of the subcellular localization of the HCV replication complex (16). […] When we subjected I/5A-GFP cells to flow-cytometry analysis, we found the GFP signal of the majority (˜70%) of the cells to be indistinguishable from that of Clone B, a replicon cell line without GFP but containing the same S2204I mutation in the NS5A gene (1) (FIG. 1). To obtain a cell line with minimal FACS-profile overlap with the GFP-negative replicon cells, we then performed consecutive rounds of cell sorting on I/5A-GFP-6 cells in which the cells with the strongest GFP were recovered. A population with no greater than 15% GFP-negative cells was obtained after four rounds of sorting and was used for the present study. We designated these cells GS4 (FIG. 1).
The GFP signal of these cells was then analyzed by flow cytometry 4 days after treatment with increasing amounts of inhibitors, including Interferon-α (IFN-α), 2′-Cmethyl-adenosine (2CMA), and Cyclosporin A (Cs A). […] The […] (0.25 μM for 2CMA, 0.5 μg/ml for CsA, and 10-25 units/ml for IFN-α) obtained with this assay closely resemble results from previous studies where HCV RNA level was measured (2, 6, 19, 26).

[2] = tested on: HCV replicon (NS5A-GFP) in GS4 cells; assay: Recovery of NS5A-GFP expression at 37° C. after 39° C. treatment of GS4 cells; type: cell-based, hepatitis C virus; settings: 4 days recovery at 37° C.; 100 units/ml IFN-a, 10 μg/ml aphidicolin
Experimental: To eliminate the possibility that these growth-arrest treatments somehow stabilize the GFP and maintain it throughout the treatment, we took advantage of our finding that 39° C. treatment results in reversible inhibition of HCV replication in our assay. We first eliminated the GFP signal from GS4 cells by incubating them at 39° C. for 4 days and then transferred the cells back to 37° C. so that HCV replication could recover. […] We tested aphidicolin and serum starvation using this assay along with IFN-α.

[3] = tested on: GS4 cells; assay: Cell-cycle analysis by propidium iodide staining; type: cell-based; settings: 4 days, 10 μg/ml shown
Experimental: as §1
Failure of growth arrest to inhibit replicon expression prompted us to examine the effect of cell-cycle perturbation on replicon expression. Propidium iodide (PI) staining of the cells permitted acquisition of dual fluorescence FACS profiles showing the cell-cycle distribution of GFP-positive and -negative cells. We found no correlation between positive GFP signal and any of the cell-cycle stages in the cycling cells (FIG. 12, no treatment). Incubation at 39° C. inhibited NS5A-GFP expression without any effect on cell-cycle profile. […] Even though confluency also affected cell cycle to a certain degree, its effect on cell-cycle progress was far less dramatic than that of aphidicolin.

[4] = tested on: HCV RNA in GS4 cells; assay: Northern analysis of HCV RNA in GS4 cells; type: cell-based, hepatitis C virus; settings: 3 days, 1 μM 2CMA, 10 μg/ml aphidicolin
Experimental: RNA extraction and northern blots. Total RNA was extracted with TRIzol reagent (Invitrogen, San Diego, Calif.). Equal amounts of RNA (10 μg per sample) were loaded onto formaldehyde-containing agarose gels for electrophoresis. The transfer of RNA onto a nitrocellulose membrane, random labeling of a radioactive probe, and hybridization were all performed according to standard molecular-biology protocols. The probe for detecting HCV RNA is a cDNA fragment that corresponds to nucleotides 8024 to 9563 of HCV 1 b. The exposure and detection of the radioactive signal was done with a Storm 860 phosphor-imaging system (Amersham/GE Healthcare).
To validate our results at the viral RNA level, we repeated the inhibition and rescue experiments and directly examined HCV RNA by northern blotting. GS4 cells were treated with various inhibitors/agents for 3 days before the total RNAs were subjected to northern analysis for HCV RNA.

[5] = tested on: HCV replicon (wild-type NS5A) in Huh.8 cells; assay: Western blot for NS5A expression in Huh.8 replicon cells; type: cell-based, hepatitis C virus; settings: 4 days, 1 μM 2CMA, 10 μg/ml aphidicolin
Experimental: Antibodies and western blots. An anti-NS5A monoclonal antibody was purchased from Virogen (Boston, Mass.) and an anti-Ku86 monoclonal antibody from Sigma. A monoclonal antibody against GFP was obtained from Clontech/BD Biosciences. To detect membrane-associated HCV proteins, we directly lysed the replicon cells in SDS PAGE sample buffer. We used 2×10^5 cells per 160 μl of SDS PAGE sample buffer for all our western blotting experiments. Blotting and detection were all performed according to standard procedures. For detection of Ku86 signal, the membrane was first stripped of the NS5A signal by incubation in stripping buffer (100 mM 2mercaptoethanol, 2% SDS, 62.5 mM Tris-HCl, pH 6.7) for 30 minutes at 50° C.
Additional experiments with a replicon cell line containing a wild type HCV sequence. […] Huh.8 is replicon cell line that contains the wild-type sequence of NS5A (1). Huh.8 cells were cultured under various conditions for 4 days before being analyzed by western blot for NS5A expression. […] Serum starvation actually appeared to have increased NS5A expression, as it did with the GS4 cells (FIG. 8 and data not shown).

[6] = tested on: full-length HCV RNA based on the genotype 1b HCV-N; settings: reference 22; cited from earlier work
[7] = tested on: HCV replicon; settings: reference 17; cited from earlier work

Compound	mean intensity of the GFP and percentage of GFP-positive cells ([1]; GS4 cells, 4 days)	recovery of NS5A-GFP expression after 39° C. treatment [2]	effect on NS5A-GFP expression ([1]; 5 to 20 μg/ml, GS4 cells, 4 days)	cell-cycle arrest [3]	HCV RNA signal (northern blotting) [4]	NS5A expression (western blot) [5]	abundance of HCV RNA or protein [6]	effect on HCV replicon [7]	IC50 ([1]; Hepatitis C virus, 96 h, GS4 cells, 4 days treatment, flow cytometry, read-out: 1050 (NS5A-GFP expression)) [nM]	effect on HCV RNA replication or protein expression ([1]; our system, data not shown)
Interferon-α [IFN-α]	effectively lowered	efficiently blocked the recovery of the NS5A-GFP expression	–	–	–	–	–	–	–	–
C[C@@]1(CO)[C@H](O)CC[C@@]2(C)[C@H]1CC[C@H]1C[C@@H]3C[C@@]12CC[C@]3(O)CO [aphidicolin]	–	did not prevent the resumption of HCV replication	failed to affect NS5A-GFP expression significantly	effectively arrested cell cycle at the G1/S transition	only had a minimal effect	did not inhibit HCV expression	had no effect	inhibitory effect	–	–
C[C@@]1(O)[C@H](O)[C@@H](CO)O[C@H]1n1cnc2c(N)ncnc21 [2CMA, 2′-C-methyl-adenosine]	effectively lowered	–	–	–	effectively eliminated HCV RNA signal	effectively eliminated any NS5A expression	–	–	250	–
TGF-β	–	–	–	–	–	–	–	–	–	only a marginal effect
